Data on seven compounds can be found in ChEMBL document CHEMBL1201862, “PubChem BioAssay data set” (2004).

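96-well plates; 48 h exposure; 5 concentrations. Endpoints by linear interpolation between flanking doses. Not reached: highest tested concentration assigned. At the GI50, growth is halved.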 Activity calls are given as the source filed them. Cut-off read from the data, not from the text of the source: active = GI50 up to about 1.1 µM and inactive = higher.

Assay in all cases: NCI anticancer screen, dose series, 48 h
Assay [1] relates to ACHN.
Assay [2] relates to SF-539.
The subject of assay [3] is SK-MEL-2.
Assay [4] concerns RXF 393.
Assay [5] has as its system OVCAR-5.
Assay [6] has as its system A549.
Assay [7] concerns CAKI-1.
Assay [8] concerns T47D.
In assay [9] the test system is PC-3.
Assay [10] relates to COLO 205.
Assay [11] concerns Hs-578T.
The test system of assay [12] is OVCAR-8.
Assay [13] relates to OVCAR-3.
The subject of assay [14] is IGROV-1.
The subject of assay [15] is NCI-H522.
In assay [16] the test system is NCI/ADR-RES.
In assay [17] the test system is MDA-N.
The test system of assay [18] is NCI-H460.
The test system of assay [19] is HCT-116.
Assay [20] deals with HCT-15.

In the case of `COc1cc([C@@H]2c3cc4c(cc3[C@@H](c3c(O)cc(O)c5c3O[C@H](c3ccc(O)c(O)c3)[C@H](OC(=O)c3cc(O)c(O)c(O)c3)C5)[C@H]3COC(=O)[C@H]23)OCO4)cc(OC)c1O`, the GI50 in assay [1] was 53.7 µM (inactive); in [2], 24.1 µM (inactive); in [3] it was 57.9 µM (inactive); in [4] it was 59.4 µM (inactive); in [5], 39.4 µM (inactive); in assay [6], 29.4 µM (inactive). Also, the GI50 in [7] was 76.6 µM (inactive); in [8], > 100 µM (inactive); in [9], 42.8 µM (inactive); in assay [10] it was 28.7 µM (inactive); in assay [11], 96.4 µM (inactive); in assay [12] it was 35.6 µM (inactive). Moreover, the GI50 in assay [13] was 28.2 µM (inactive); in assay [14], 57.7 µM (inactive); in [15] it was 24 µM (inactive); in [16] it was 54.8 µM (inactive); in [17], 18.4 µM (inactive); in [18], 32.5 µM (inactive). The values for the GI50 in [19] and in [20] were 23.7 µM (inactive) and 40.8 µM, respectively.

Take `Cn1c2ccccc2n2c3ccccc3c(=O)c(C#N)c12`: the GI50 in assay [1] was 2.91 µM (inactive); in assay [2], 13 µM (inactive); in assay [3], 48.8 µM (inactive); in [4] it was 40.7 µM (inactive); in assay [5] it was > 70 µM (inactive); in [6], 4.94 µM (inactive). Also, the GI50 in assay [7] is 3.85 µM (inactive); in assay [8], 17.6 µM (inactive); in assay [9], 22.8 µM (inactive); in [10], 9.2 µM (inactive); in assay [11], 13.2 µM (inactive); in assay [12], 3.96 µM (inactive). Also, the GI50 was > 100 µM (inactive) in [13]; 6.01 µM (inactive) in assay [14]; 4.29 µM (inactive) in assay [15]; 4.46 µM (inactive) in assay [16]; > 48.5 µM (inactive) in assay [17]; 3.23 µM (inactive) in [18]. Further, the results for the GI50 in assay [19] and in assay [20] were 4.19 µM (inactive) and 6.62 µM, respectively.

As to `Cn1c2c(c3ccccc31)CCN=C2C1CCCOC1=O` (stereo not given), the GI50 in assay [1], in assay [2], in [3], in [4], in assay [5] and in assay [6] was > 100 µM (inactive) each time. The GI50 in assay [7] is > 100 µM (inactive); in [8], > 100 µM (inactive); in assay [9] it was > 100 µM (inactive); in assay [10] it was > 100 µM (inactive); in assay [11], 32.6 µM (inactive); in assay [12] it was > 100 µM (inactive). Also, the GI50 in [13], in [14], in assay [15], in assay [16], in assay [17] and in [18] was > 100 µM (inactive) throughout. In addition, the GI50 is > 100 µM (inactive) in assay [19] and above 100 µM in assay [20].

For the compound `CC(NC(=O)C(NC(=O)C(NC(=O)C(F)(F)F)C(C)C)C(C)C)C(=O)Oc1c(Cl)c(Cl)c(Cl)c(Cl)c1Cl` (stereo not given), the GI50 in [1], in [2], in assay [3], in [4], in [5] and in [6] was > 100 µM (inactive) each time. For the same compound, the GI50 in [7] was > 100 µM (inactive); in assay [8] it was 83.4 µM (inactive); in assay [9], > 100 µM (inactive); in assay [10], > 100 µM (inactive); in assay [11], > 100 µM (inactive); in [12], > 100 µM (inactive). The GI50 is 92.5 µM (inactive) in assay [13]; > 100 µM (inactive) in [14]; 85.5 µM (inactive) in assay [15]; > 100 µM (inactive) in [16]; > 100 µM (inactive) in assay [17]; > 100 µM (inactive) in assay [18]. For the same compound, the GI50 in [19] was > 100 µM (inactive); in assay [20], above 100 µM.

For the compound `O=C(CCc1ccc(O)cc1)NCCc1cccc(OCc2ccccc2)c1`, the GI50 is 33.2 µM (inactive) in assay [1]; 16.5 µM (inactive) in assay [2]; 17.3 µM (inactive) in assay [3]; 15.8 µM (inactive) in assay [4]; 43.5 µM (inactive) in assay [5]; 40.1 µM (inactive) in assay [6]. Moreover, the GI50 was 48 µM (inactive) in [7]; 21.7 µM (inactive) in assay [8]; 20.1 µM (inactive) in assay [9]; 49.4 µM (inactive) in assay [10]; 35.3 µM (inactive) in assay [11]; 26.2 µM (inactive) in assay [12]. Moreover, the GI50 in [13] is 17.2 µM (inactive); in assay [14], 28.5 µM (inactive); in [15], 32.9 µM (inactive); in assay [16], 28.1 µM (inactive); in assay [17] it was 25.1 µM (inactive); in [18], 22.8 µM (inactive). For the same compound, the GI50 was 21.8 µM (inactive) in assay [19] and 29 µM in assay [20].

As for `CC(=O)OCCN(C1=NCCN1)/[N+](C=c1ccc(=C=[N-])cc1)=C/c1ccc(C#N)cc1`, the GI50 in assay [1], in [2], in [3], in [4], in [5] and in assay [6] was > 100 µM (inactive) each time. In addition, the GI50 in assay [7], in assay [8], in [9], in [10], in [11] and in assay [12] was > 100 µM (inactive) throughout. For the same compound, the GI50 in [13] is > 100 µM (inactive); in [14] it was > 100 µM (inactive); in assay [15], > 100 µM (inactive); in [16] it was 94.6 µM (inactive); in assay [17], > 100 µM (inactive); in assay [18], > 100 µM (inactive). Besides, the GI50 in assay [19] is > 100 µM (inactive); in assay [20], above 100 µM.

For `CC[C@@]1(O)C(=O)OCc2c1cc1n(c2=O)Cc2c-1nc1ccccc1c2CC[Si](C)(C)C` [COSITECAN], the GI50 in assay [1] was < 0.01 µM (active); in [2], < 0.01 µM (active); in [3] it was 0.053 µM (active); in assay [4], < 0.01 µM (active); in assay [5], 0.0601 µM (active); in assay [6], < 0.01 µM (active). Also, the GI50 was < 0.01 µM (active) in assay [7]; < 0.01 µM (active) in [8]; < 0.0389 µM (active) in [9]; < 0.0383 µM (active) in assay [10]; 7.73 µM (inactive) in [11]; < 0.01 µM (active) in [12]. Besides, the GI50 in assay [13] was 0.0604 µM (active); in [14] it was 0.0149 µM (active); in [15], < 0.01 µM (active); in [16], < 0.01 µM (active); in assay [17] it was < 0.01 µM (active); in assay [18] it was < 0.01 µM (active). For the same compound, the GI50 in [19] is < 0.01 µM (active); in assay [20], 0.0789 µM.
